From patent US20080064088A1, “DEVICES AND METHODS FOR PHARMACOKINETIC-BASED CELL CULTURE SYSTEM” (priority 2006, published 2008)
“Also recorded” adds a separate entry of the source.

Tests used:
HCT-116 cells = assay: Traditional in vitro cell culture assay, HCT-116 on poly-lysine treated glass coverslips; format: cell-based, human; conditions: for cytotoxicity to HCT-116 cells, traditional cell culture assay: 48 hr incubation
Procedure: (§1) FIG. 16 Tegafur dose response. Chips were seeded with HepG2-C3A cells in the liver compartment and HCT-116 colon cancer cells in the target tissues compartment. The chips were treated with indicated concentrations of tegafur for 24 hours. The first graph (FIG. 16A) is a plot of percentage dead cells vs. tegafur or 5-FU concentration after 24 hours of re-circulation on the chip. The second graph (FIG. 16B) is a similar dose response using a traditional in vitro cell culture assay with HCT 116 cells using a 48 hour exposure. HCT-116 cells were seeded on poly-lysine treated glass coverslips and exposed to either tegafur or 5-FU at the indicated concentrations. After a 48 hr incubation, coverslips were treated as described above and the percentage of cell death was determined.
To measure the cytotoxic effects of tegafur against colon cancer cells, the microscale chip was prepared with HepG2-C3A cells in the liver compartment and HCT-116 human colon cancer cells in the target tissue compartment. Tegafur was added to the re-circulating medium at various concentrations for 24 hours and the cells labeled with Hoechst 33342, a membrane permeable DNA dye, and ethidium homodimer, a membrane impermeable DNA dye (see Methods Section).

[1] = system: HCT-116 human colon cancer cells; conditions: for cell death of HCT-116 cells, chip seeded with HCT-116 cells only: no cells in the liver compartment, 24 hours
Procedure: as §1, with “Chips were seeded with HepG2-C3A cells in the liver compartment and HCT-116 colon cancer cells in the target tissues compartment.” left out
(§2) LIVE/DEAD stain is a two-component stain consisting of calcein AM and ethidium homodimer. Living cells actively hydrolyze the acetoxymethyl ester (AM) moiety of calcein AM to produce bright green fluorescence of calcein. In contrast, cells that have compromised membrane integrity allow the normally membrane impermeant ethidium homodimer to stain the nucleus of dead or dying cells fluorescent red. The cell permeant nuclear stain, Hoechst 33342 acts as a general stain for all cells. Together with the appropriate filter sets, living cells fluoresce green, dying or dead cells red, and all cells are quantified by a blue nuclear fluorescence. For experiments described herein, trypan blue was used at 0.2% (w/v), calcein AM at 1:20,000, propidium iodide at 1:5,000, and Hoechst 33342 at 10 μg/ml. Cells were visualized with a M2Bio stereofluorescence microscope (Zeiss). All experiments were repeated at least three times and measurements done in triplicate.
[…] Tegafur was added to the re-circulating medium at various concentrations for 24 hours and the cells labeled with Hoechst 33342, a membrane permeable DNA dye, and ethidium homodimer, a membrane impermeable DNA dye (see Methods Section).

[2] = system: HepG2/C3A cells in the liver compartment and HCT116 cells in the target tissues compartment; assay: Annexin V-FITC apoptosis assay on microscale chip system; format: cell-based, human; conditions: 1 μM, 6-hour treatment, compared to untreated control cell chips
Procedure: With the microscale chip, annexin V-FITC labeling was visualized directly on-chin, by first flushing the system with PBS, then recirculating annexin V-FITC (10 μg/ml in annexin V binding buffer, Clontech) for 30 min. Cells were then visualized directly using a FITC filter set.
The annexin V-FITC was used to detect apoptosis in the microscale chip system as described in the Methods section. Briefly, the microscale chip cell chips were seeded with HepG2/C3A cells in the liver compartment and HCT116 cells in the target tissues compartment. Cell chips were loaded onto the microscale chip system and treated with and without 1 μM staurosporine as described above. After a 6-hour incubation, the re-circulating medium was switched to PBS containing Annexin V-FITC and Hoechst 33342 and allowed to flow through the system for 30 minutes. Cell chips were removed from the acrylic housing and visualized under a fluorescent microscope. Cells were visualized under a fluorescent microscope and fluorescent images of identical fields were obtained using the appropriate filter sets.

HCT116 cells [3] = assay: LIVE/DEAD cytotoxicity assay on microscale chip system; format: cell-based, human; conditions: 1 μM, 24 hour treatment, compared to untreated control cell chips
Excerpt: as §2
(§3) Two different assays to detect apoptosis were investigated. The first assay was the immunofluorescence-based terminal deoxynucleotidyl transferase BrdU nick end labeling (TUNEL) technique available in kit form as APOPTAG™ (Intergen Co., MA) (see Methods section).

HepG2/C3A cells [4] = assay: LIVE/DEAD assay on poly-D-lysine treated glass coverslips; format: cell-based, human; conditions: 1 μM, 24 hours
Excerpt: as §2
The LIVE/DEAD assay was optimized (see Methods section) using cells grown on glass coverslips. Briefly, HepG2/C3A cells were seeded onto poly-D-lysine treated glass coverslips and treated with and without 1 μM staurosporine for 24 hours. […]

HCT116 cells [5] = assay: APOPTAG (TUNEL) apoptosis assay on microscale chip system; format: cell-based, human; conditions: 1 μM, 24 hour exposure, compared to untreated controls
Excerpt: (§4) In contrast to annexin V labeling, the APOPTAG™ kit (Intergen Co., MA) uses terminal deoxynucleotidyl transferase to label free 3′-OH DNA termini exposed during apoptotic DNA degradation and visualization using immunofluorescence (Li, X., Traganos, F., Melamed, M. R., and Darzynkiewicz, Z. (1995). Single-step procedure for labeling DNA strand breaks with flourescein-or BODIPY-conjugated deoxynucleotides: detection of apoptosis and bromodeoxyuridine incorporation. Cytometry 20, 172-180). Although this method is highly specific for apoptosis, the procedure cannot be done on-chip due to the fixation and incubation steps. Briefly, microscale chips were run under specified experimental conditions, the cell chips were removed from their housing units, fixed in 1% paraformaldehyde and processed with the APOPTAG™ kit using the manufacturer's protocol.
as §3, with “section). The assay was first optimized using cells grown on glass coverslips. Briefly, HepG2/C3A cells were seeded onto poly-D-lysine treated glass coverslips and treated with and without staurosporine. Coverslips were processed as described (see Methods section). […]” for “section).”

HepG2/C3A cells [6] = assay: APOPTAG (TUNEL) apoptosis assay on glass coverslips; format: cell-based, human; conditions: 1 μM, 24-hour incubation, compared to untreated controls
Excerpt: as §4
as §3, with “section). The assay was first optimized using cells grown on glass coverslips. Briefly, HepG2/C3A cells were seeded onto poly-D-lysine treated glass coverslips and treated with and without staurosporine. Coverslips were processed as described (see Methods section). […]” for “section).”

[7] = system: HT29 human colon cancer cells; assay: Microscale chip, HepG2-C3A liver compartment and HT29 target tissue compartment, live/dead fluorescence; format: cell-based; conditions: 24 hours; for efficacy against HT-29 colon cancer cells (mutant p53) in the chip: chip with HepG2-C3A liver compartment
Excerpt: as §2

O=c1[nH]cc(F)c(=O)[nH]1 [5-FU, 5-fluorouracil]
exposure at which cytotoxicity was observed, traditional cell culture assay (HCT-116 cells): 48 h
cytotoxicity to HCT-116 cells, traditional cell culture assay (HCT-116 cells): triggered cell death
cell death of HCT-116 cells, chip seeded with HCT-116 cells only [1]: caused substantial cell death

CN[C@@H]1C[C@H]2O[C@@](C)([C@@H]1OC)n1c3ccccc3c3c4c(c5c6ccccc6n2c5c31)C(=O)NC4 [Staurosporine]
apoptosis (annexin V-FITC) on chip [2]: significant apoptosis
cell death of HCT116 cells (LIVE/DEAD) on chip (HCT116 cells [3]): Significant cell death; also recorded: significant apoptosis (or cytotoxicity)
cell death of HepG2/C3A cells (LIVE/DEAD) (HepG2/C3A cells [4]): clearly cause cell death
apoptosis of HCT116 cells (APOPTAG) on chip (HCT116 cells [5]): significant apoptosis (or cytotoxicity)
apoptosis of HepG2/C3A cells (APOPTAG) (HepG2/C3A cells [6]): significant apoptosis

CC1=C(CC(=O)O)c2cc(F)ccc2/C1=C\c1ccc([S+](C)[O-])cc1 (stereo not drawn) [Sulindac, sulindac sulfoxide]
cell death of HT29 cells in the chip ([7]; One hundred micromoles in re-circulating medium, absence of the HepG2-C3A liver cells): minimal levels of cell death
efficacy against HT-29 colon cancer cells (mutant p53) in the chip [7]: effective

O=c1[nH]c(=O)n(C2CCCO2)cc1F (stereo not drawn) [Tegafur, 5-fluoro-1-(2-tetrahydrofuryl)-2,4(1H,3H)-pyrimidinedione]
efficacy against HT-29 colon cancer cells (mutant p53) in the chip [7]: ineffective
cytotoxicity to HCT-116 cells, traditional cell culture assay (HCT-116 cells): ineffective
cytotoxicity to HCT-116 cells in the microscale chip [1]: cytotoxic to HCT-116 cells in a dose-dependent fashion
exposure at which cytotoxicity was observed, microscale chip [1]: 24 h
cell death of HCT-116 cells, chip seeded with HCT-116 cells only [1]: did not cause significant cell death
